Usually thermodynamic solubility stands for solubility found after equilibrating the solid with the medium.

One data set in a line: physchem. In kind it is physicochemical. The conditions noted are these: for solubility thermodynamic: aqueous with cosolvent or surfactant or cyclodextrin, thermodynamic from solid. An excerpt: The equilibrium solubility of silymarin in two kinds of beer after the addition of the water-soluble mixture with the Silybum marianum polyphenols according to example 1 are shown in the following table: […]

A short description of data set [1]: Total amount of Silybum marianum polyphenols in bottled beer by HPLC. In kind it is physicochemical. The conditions noted are these: example 1 mixture dosed at 100 mg silymarin per liter; for Content in DIA beer: bottled DIA beer; for Content in PILS 12% beer: bottled PILS 12% beer; for Content in Non-alcoholic beer: bottled non-alcoholic beer. How it is done: The total amount of Silybum marianum polyphenols in beers was determined by HPLC in bottled beer as a sum of silymarin components.

In brackets after ≈: the same amount, converted by molar mass.

In the case of `COc1cc([C@@H]2[C@H]3CO[C@@]4(O)C(=O)[C@@H]2C=C([C@H]2Oc5cc(O)cc(O)c5C(=O)[C@@H]2O)[C@@H]34)ccc1O` [Silydianin], the results for the thermodynamic solubility in “physchem” (equilibrium solubility in Lager Radegast Premium) and in “physchem” (equilibrium solubility in Non-alcoholic Radegast Birell) were 66.1 µg/mL (≈ 137 µM) and 61.7 µg/mL (≈ 128 µM), respectively.

With silymarin, in “physchem”, the “equilibrium solubility in Lager Radegast Premium” value amounted to 436.17 µg/mL and the “equilibrium solubility in Non-alcoholic Radegast Birell” value was found to be 400.31 µg/mL.

With `COc1cc([C@H]2Oc3cc([C@H]4Oc5cc(O)cc(O)c5C(=O)[C@@H]4O)ccc3O[C@@H]2CO)ccc1O` [Silybin A], in the data set “physchem”, the “equilibrium solubility in Lager Radegast Premium” value is 43.03 µg/mL and the “equilibrium solubility in Non-alcoholic Radegast Birell” value came out at 38.22 µg/mL. Further, in data set [1], the “Content in DIA beer” value turned out to be 5.7 mg/L, the “Content in PILS 12% beer” value was determined as 15.1 mg/L and the “Content in Non-alcoholic beer” value was 11.5 mg/L.

For the compound `COc1cc([C@@H]2Oc3c(O)cc([C@H]4Oc5cc(O)cc(O)c5C(=O)[C@@H]4O)cc3[C@H]2CO)ccc1O` [Silychristin], in the data set “physchem”, the “equilibrium solubility in Lager Radegast Premium” value turned out to be 187.51 µg/mL and the “equilibrium solubility in Non-alcoholic Radegast Birell” value came out at 176.46 µg/mL. Also, in data set [1], the “Content in DIA beer” value was 32.7 mg/L, the “Content in PILS 12% beer” value stood at 42.1 mg/L and the “Content in Non-alcoholic beer” value is 40.5 mg/L.

For `COc1cc([C@@H]2Oc3cc([C@H]4Oc5cc(O)cc(O)c5C(=O)[C@@H]4O)ccc3O[C@H]2CO)ccc1O` [Silybin B], in the data set “physchem”, the “equilibrium solubility in Lager Radegast Premium” value stood at 85.18 µg/mL and the “equilibrium solubility in Non-alcoholic Radegast Birell” value is 75.70 µg/mL. In addition, in data set [1], the “Content in DIA beer” value was found to be 15.4 mg/L, the “Content in PILS 12% beer” value is 28.4 mg/L and the “Content in Non-alcoholic beer” value was 29.4 mg/L.

Regarding Isosilybin A + B, in “physchem”, the “equilibrium solubility in Lager Radegast Premium” value was 54.33 µg/mL and the “equilibrium solubility in Non-alcoholic Radegast Birell” value is 48.22 µg/mL. In data set [1], the “Content in DIA beer” value was found to be 20.9 mg/L, the “Content in PILS 12% beer” value came out at 15.3 mg/L and the “Content in Non-alcoholic beer” value stood at 12.5 mg/L.

The values are drawn from US20110256298A1, “BEER AND BEER-BASED BEVERAGES AND METHOD OF MODIFICATION OF POLYPHENOLS AND SILICON CONTENT IN THESE BEVERAGES” (priority 2009, published 2011).
